EP3398599A1, “COMPOSITIONS AND METHODS FOR PROPHYLAXIS AND TREATMENT OF ADDICTIONS” (priority 2009, dated 2010)
Entries after “also recorded” stand apart in the source; their conditions may differ.

What was measured:
human patients = test: Observational study of alcohol abuse in human patients (pioglitazone 30 mg/day or naltrexone 50 mg/day + psychotherapy); format: in vivo; conditions: for CDT: mean value of blood tests
Description: Patients were instructed to record in a personal logbook the number of drinks per day and the time of the day drinks occurred. At the end of the study, the logbooks were returned to the clinical personnel who analyzed the data.
In addition, biochemical parameters to ascertain alcohol detoxification and to measure recovery of physiological functions (i.e., hepatic function) were monitored monthly. Hematological parameters measured included: mean corpuscular volume (MCV); gamma-GT; aspartate aminotransferase (AST); alanine aminotransferase (ALT); and carbohydrate-deficient transferring (CDT). MCV and CDT are biomarkers for ethanol consumption, and GGT, ALT and AST are biomarkers for hepatic functionality.
Data were analyzed by analysis of variance followed by Newman-Keuls post hoc tests when appropriate.

msP rats [1] = test: Yohimbine-induced (stress-induced) reinstatement of alcohol seeking; format: in vivo; conditions: naltrexone 0.25 and 1.0 mg/kg IP 1 hour before test
msP rats [2] = test: Voluntary ethanol intake, subchronic (7 days) treatment, alcohol available 24 hours/day; format: in vivo; conditions: naltrexone […] IP alone or with pioglitazone 10.0 or 30.0 mg/kg OS, overall p<0.01
Experimental: At the beginning of the experiments, msP rats were allowed free choice between water and 10% (v/v) alcohol 24 h/day for at least 15 days. The fluids were offered in graduated drinking tubes equipped with metallic drinking spouts. The position (to the right or left) of alcohol and water drinking tubes was changed daily to avoid the development of side preference. […] Alcohol, water and food intakes were measured.
Before starting the treatment, rats were trained to gavage administration procedures for three days, during which they received vehicle (distilled water).
(§1) Alcohol, water and food intakes were monitored at 2, 8 and 24 hours. Fluids and food intakes were monitored for three additional days after the end of the drug treatment period.
as §1

msP rats [3] = test: Cue-induced reinstatement of alcohol seeking; format: in vivo; conditions: naltrexone, both doses (0.25 and 1.0 mg/kg) one hour before test; p<0.01
Long Evans rats = test: Yohimbine-induced reinstatement of nicotine seeking; format: in vivo; conditions: yohimbine 2.0 mg/kg/ml; p<0.001
Experimental: Stress and anxiety are major factors in resuming nicotine use in former abstinent users. […] Briefly, following acquisition of a stable baseline of IV nicotine self-administration (30µg/0.1ml/infusion), male Long Evans rats (n=8) were subjected to an extinction period of 5 days.
Reinstatement experiments and relative drug treatments were performed every third day. Between reinstatements, extinction baseline was re-established.

CD mice [4] = conditions: mouse, in vivo
CD mice [5] = test: Morphine-induced analgesic tolerance, tail-flick test; conditions: mouse, in vivo
Experimental: All procedures were conducted in adherence to the European Community Council Directive for Care and Use of Laboratory Animals.
Mice were divided into 6 groups. Group 1 (n=8) received drug vehicles (veh/veh). […] Animals were treated twice daily (between 9:00 and 10:00 a.m. and 9:00 and 10:00 p.m.).
Morphine hydrochloride was purchased from Salars (Milano, Italy). Morphine (30 mg/kg) was dissolved in NaCl […] and was injected intraperitoneally (IP) twice a day at the indicated doses in a volume of 0.2 ml per mice. […] It was dissolved in distilled water and was administered per o.s. at the doses of 10 mg/kg and 30 mg/kg in a volume of 0.6 ml per mice.
Two different tests were used to monitor analgesic responses. The tail-flick test was performed 45 min after the morning injection of morphine, and the tail-immersion test was performed 45 min after the evening injection of morphine.
For the tail-flick test, each mouse was gently restrained in a soft tissue pocket, and the tail (1 cm from the tip) was exposed to a hot light beam. Latency for tail-flick was measured with a 6 seconds cut-off time. For the tail-immersion test, each mouse was restrained in a soft tissue pocket, and the distal half of the tail dipped into a water bath set at 52 C°. Latency for removing the tail from the hot water was measured with a 10 seconds cut-off time.

Q: Which “Depression Scale M.A.D.R.S (mean score values)” value (“Depression Scale M.A.D.R.S” for short) (human patients; T=0 (beginning of the treatment)) does the source give for `O=C1CC[C@@]2(O)[C@H]3Cc4ccc(O)c5c4[C@@]2(CCN3CC2CC2)[C@H]1O5` [naltrexone] here?
A: Its value is 19.

Q: What about the “Depression Scale M.A.D.R.S” value (human patients; T=1.1 (month 1, week 1)) of the same compound?
A: The value was 16.

Q: What about the “Depression Scale M.A.D.R.S” value (human patients; T=1.2 (month 1, week 2)) of the same compound?
A: Its value is 18.

Q: And the “effect on daily drinks, naltrexone vs pioglitazone” value (human patients; first two weeks of treatment, P<0.05)?
A: Its value is “more effective than pioglitazone”.

Q: And the CDT (human patients; T0)?
A: Its CDT is 3.6.

Q: What about the CDT (human patients; T1= 4 weeks) of the same compound?
A: The CDT was 3.0.

Q: What about the CDT (human patients; T2= 8 weeks) of the same compound?
A: The CDT was 2.5.

Q: What about the “decrease in MCV and CDT” value (human patients; naltrexone treated patients (NTX), two months) of the same compound?
A: The value was “to a lesser extent compared to the pioglitazone group”.

Q: What about the “all the five biomarkers (MCV, GGT, ALT, AST, CDT): difference from controls (psychotherapy alone)” value (human patients; post hoc tests, P<0.001) of the same compound?
A: Its value is “statistical difference”.

Q: What about the “anxiety score: difference from controls” value (human patients; post hoc tests, P<0.001) of the same compound?
A: The value was “statistically significant difference”.

Q: What about the “obsessive compulsive score for alcohol (OCDS): decrease, difference from controls” value (human patients; post hoc tests, P<0.001) of the same compound?
A: Its value is “statistically significant difference”.

Q: And the “depression score (MADRS): difference from controls” value (human patients; post hoc tests, P<0.001 for pioglitazone)?
A: The value was “not naltrexone”.

Q: What about the “hepatic parameters (GGT, ALT, AST)” value (human patients; two months of treatment) of the same compound?
A: Its value is “ameliorated”.

Q: And the “daily ethanol intake (number of daily drinks)” value (human patients; vs psychotherapy only)?
A: Its value is “significantly reduced daily ethanol intake”.

Q: What about the “number of abstinence days” value (human patients; vs psychotherapy only) of the same compound?
A: The value was “increased the number of abstinence days”.

Q: What about the “yohimbine-induced reinstatement of alcohol seeking” value (msP rats [1]) of the same compound?
A: Its value is “did not significantly reduce the effect of yohimbine”.

Q: What about the voluntary ethanol intake (msP rats [2]) of the same compound?
A: Its voluntary ethanol intake is “significantly reduced”.

Q: And the “conditioned (cue-induced) reinstatement of alcohol-seeking” value (msP rats [3])?
A: Its value is “significantly reduced reinstatement of ethanol seeking; also recorded: significantly reduced cue-induced reinstatement of alcohol-seeking”.

Q: How did the “reinstatement of responding (nicotine seeking) compared to extinction” value (Long Evans rats) turn out when `COC(=O)[C@@H]1[C@H]2C[C@H]3c4[nH]c5ccccc5c4CCN3C[C@@H]2CC[C@@H]1O` [yohimbine] was run?
A: The value was “significant reinstatement of responding”.

Q: `CN1CC[C@]23c4c5ccc(O)c4O[C@H]2[C@@H](O)C=C[C@H]3[C@H]1C5` [morphine] was tested. Which “analgesic effect (tail-immersion) on test day 9” value (CD mice [4]) did it give?
A: Its value is “marginally significant”.

Q: And the “tail-immersion latency on day 1, 3, 5, and 7” value (CD mice [4])?
A: The value was “significantly increased the time to tail-flick”.

Q: And the “time to tail-flick on day 1, 3 and 5” value (CD mice [5])?
A: The value was “significantly increased the time to tail-flick”.

Q: What about the “time to tail-flick on test days 7 and 9” value (CD mice [5]) of the same compound?
A: Its value is “non significant difference from controls”.
